Data as given in ChEMBL document CHEMBL5308504, “Tm Shift (DSF) assay results for EUbOPEN Chemogenomics Library” (2023).

Experiments:
Peregrin (Homo sapiens) = target: T1, Peregrin (Homo sapiens) (UniProt P55201); conditions: Compound concentration 20.0 uM, Protein concentration 2.0 uM, Result type QC Liability
T1 sequence (whole entry): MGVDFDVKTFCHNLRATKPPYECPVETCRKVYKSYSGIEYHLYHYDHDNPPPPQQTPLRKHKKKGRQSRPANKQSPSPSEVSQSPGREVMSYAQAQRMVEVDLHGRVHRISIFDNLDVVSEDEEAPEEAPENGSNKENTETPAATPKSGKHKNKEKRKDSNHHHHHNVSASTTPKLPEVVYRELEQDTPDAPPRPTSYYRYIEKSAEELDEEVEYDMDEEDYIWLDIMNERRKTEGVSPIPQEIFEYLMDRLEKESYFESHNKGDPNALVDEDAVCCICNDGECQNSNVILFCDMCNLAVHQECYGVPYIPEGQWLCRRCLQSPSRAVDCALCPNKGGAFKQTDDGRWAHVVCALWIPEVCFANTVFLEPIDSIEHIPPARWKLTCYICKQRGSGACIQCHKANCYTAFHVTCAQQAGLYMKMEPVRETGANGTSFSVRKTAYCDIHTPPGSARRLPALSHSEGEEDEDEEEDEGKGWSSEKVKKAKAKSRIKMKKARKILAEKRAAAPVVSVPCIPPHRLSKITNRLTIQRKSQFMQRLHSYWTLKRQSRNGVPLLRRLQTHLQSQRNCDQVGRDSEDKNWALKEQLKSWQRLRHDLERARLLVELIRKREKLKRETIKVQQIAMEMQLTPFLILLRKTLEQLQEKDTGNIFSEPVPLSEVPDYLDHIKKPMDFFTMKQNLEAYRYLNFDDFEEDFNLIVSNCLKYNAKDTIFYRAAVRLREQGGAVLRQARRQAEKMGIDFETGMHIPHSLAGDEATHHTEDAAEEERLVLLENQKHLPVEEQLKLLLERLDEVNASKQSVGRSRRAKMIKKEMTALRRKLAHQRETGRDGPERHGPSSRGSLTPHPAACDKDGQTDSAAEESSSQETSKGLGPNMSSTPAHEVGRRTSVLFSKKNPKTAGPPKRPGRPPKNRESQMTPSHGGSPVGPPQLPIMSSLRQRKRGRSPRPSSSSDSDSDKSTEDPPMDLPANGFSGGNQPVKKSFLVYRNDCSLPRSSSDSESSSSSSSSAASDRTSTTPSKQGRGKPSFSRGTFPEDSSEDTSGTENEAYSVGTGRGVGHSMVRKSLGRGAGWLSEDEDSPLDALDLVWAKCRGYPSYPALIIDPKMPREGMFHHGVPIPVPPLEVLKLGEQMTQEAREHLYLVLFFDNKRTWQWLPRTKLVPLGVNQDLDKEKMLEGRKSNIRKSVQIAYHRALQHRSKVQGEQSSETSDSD

[1] = target: Fibroblast growth factor receptor 3 (Homo sapiens) (UniProt P22607); conditions: Compound concentration 20.0 uM, Protein concentration 2.0 uM, Result type QC Liability
Sequence of Fibroblast growth factor receptor 3 (Homo sapiens) (P22607 23-806 limits assumed): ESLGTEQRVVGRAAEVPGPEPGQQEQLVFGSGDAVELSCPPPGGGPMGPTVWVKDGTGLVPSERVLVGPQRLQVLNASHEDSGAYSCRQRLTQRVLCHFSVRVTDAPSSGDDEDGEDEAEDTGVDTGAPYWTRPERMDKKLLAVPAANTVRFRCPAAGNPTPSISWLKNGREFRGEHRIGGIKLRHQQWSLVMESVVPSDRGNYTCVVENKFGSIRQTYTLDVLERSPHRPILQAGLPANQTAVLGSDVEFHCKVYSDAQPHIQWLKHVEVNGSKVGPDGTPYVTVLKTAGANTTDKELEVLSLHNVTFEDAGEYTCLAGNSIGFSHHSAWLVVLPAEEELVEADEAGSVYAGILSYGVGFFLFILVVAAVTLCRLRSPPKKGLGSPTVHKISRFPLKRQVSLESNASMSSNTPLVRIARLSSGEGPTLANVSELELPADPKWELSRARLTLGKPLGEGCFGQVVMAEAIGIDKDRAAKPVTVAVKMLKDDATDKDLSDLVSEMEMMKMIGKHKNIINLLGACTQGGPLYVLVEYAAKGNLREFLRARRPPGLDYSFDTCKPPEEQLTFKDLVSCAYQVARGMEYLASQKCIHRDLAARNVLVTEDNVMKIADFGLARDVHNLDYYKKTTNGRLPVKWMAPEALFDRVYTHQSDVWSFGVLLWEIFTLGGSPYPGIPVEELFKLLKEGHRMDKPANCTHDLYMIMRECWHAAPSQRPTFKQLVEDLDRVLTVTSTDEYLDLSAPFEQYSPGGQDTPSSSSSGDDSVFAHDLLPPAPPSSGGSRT
Description: Thermal Shift Assay. Domain: start/stop: P449-E759

## Cc1ccccc1Oc1cc(-n2c(=O)cc(C(F)(F)F)[nH]c2=O)c2ccccc2c1Cl
Peregrin (Homo sapiens)
  ΔTm: -1.36 °C
[1]
  ΔTm: 0.76 °C

## CCCCc1c(-c2ccccc2)nc(N)nc1-c1ccc(OCc2ccccc2)c(F)c1F
Peregrin (Homo sapiens)
  ΔTm: -4.97 °C
[1]
  ΔTm: -0.31 °C

## CC(=O)Oc1ccc2c(c1)[C@@]1(C)CCC[C@](C)(C(=O)OC(=O)[C@@]3(C)CCC[C@]4(C)c5cc(OC(C)=O)ccc5CC[C@@H]34)[C@@H]1CC2
Peregrin (Homo sapiens)
  ΔTm: -2.67 °C
[1]
  ΔTm: 0.1 °C

## Cc1cc(OCCC(C)(C)O)cc(C)c1-c1ccc(F)c2c1CC[C@H]2Oc1ccc2c(c1)OC[C@H]2CC(=O)O
Peregrin (Homo sapiens)
  ΔTm: -15.3 °C
[1]
  ΔTm: -2.24 °C

## CCCCCCCC/C=C\CCCCCCCC(=O)NCCO
Peregrin (Homo sapiens)
  ΔTm: -0.91 °C
[1]
  ΔTm: 1.23 °C

## COCCNC1CCC(Nc2cc(-c3csc(NCC4(C#N)CCOCC4)n3)c(Cl)cn2)CC1 (centres undefined)
Peregrin (Homo sapiens)
  ΔTm: 0.03 °C
[1]
  ΔTm: 0.74 °C

## C[C@@H]1C[C@H](C)CN(c2ncc(Cl)c(Nc3ccc4c(c3)cc(OC(C)(C)C(=O)O)c(=O)n4C)n2)C1
Peregrin (Homo sapiens)
  ΔTm: -3.96 °C
[1]
  ΔTm: 0.41 °C

## COc1cc(-c2cn(C)c(=O)c3cnccc23)c(OC)cc1CN(C)C
Peregrin (Homo sapiens)
  ΔTm: 0.44 °C
[1]
  ΔTm: 0.84 °C

## CC(=O)N(CCN(C)C)c1ccc(N/C(=C2\C(=O)Nc3cc(Cl)ccc32)c2ccccc2)cn1
Peregrin (Homo sapiens)
  ΔTm: -1.84 °C
[1]
  ΔTm: 7.35 °C

## CC(=O)Nc1ncc(CN2CCC[C@H](Cc3cc(C)nc(C)c3)C2)s1
Peregrin (Homo sapiens)
  ΔTm: 0.17 °C
[1]
  ΔTm: 1 °C

## N#Cc1ccc(C#CC[C@@H](C#N)NC(=O)[C@H]2CCCCN2)cc1F
Peregrin (Homo sapiens)
  ΔTm: -2.24 °C
[1]
  ΔTm: 0.88 °C

## COc1ccc(F)c(F)c1C(=O)c1cnc(NC2CCN(S(C)(=O)=O)CC2)nc1N
Peregrin (Homo sapiens)
  ΔTm: -0.92 °C
[1]
  ΔTm: 1.01 °C

## COC(=O)c1ccc2c(c1)NC(=O)/C2=C(\Nc1ccc(-c2nccn2C)cc1)c1ccccc1
Peregrin (Homo sapiens)
  ΔTm: -1.36 °C
[1]
  ΔTm: 6.61 °C

## CN(C)C(=O)Cn1cc(-c2ccc(-c3nnc4ccccn34)cc2)cn1
Peregrin (Homo sapiens)
  ΔTm: -2.13 °C
[1]
  ΔTm: 0.47 °C

## Cc1ccc2c(N)c(C(=O)NC3CCc4cc(N5CC6CCC(C5)N6)ccc4C3)sc2n1 (centres undefined)
Peregrin (Homo sapiens)
  ΔTm: -1.37 °C
[1]
  ΔTm: 0.55 °C

## Cc1nsc(Nc2cnc(C(F)(F)F)cn2)c1C(=O)Nc1ccc(O[C@H]2CCCN(CC(F)(F)F)C2)nc1
Peregrin (Homo sapiens)
  ΔTm: -3.38 °C
[1]
  ΔTm: 1.39 °C

## CN(C)C(=O)Cn1cc(-c2nc([C@@](C)(c3ccc(-c4cnc(N)nc4)cc3)C3CC3)no2)cn1
Peregrin (Homo sapiens)
  ΔTm: -1.93 °C
[1]
  ΔTm: 0.61 °C

## Cc1cc(Cn2c(N3CC4(CNC4)C3)nc3cc(Cl)cc(N4CCN(C)CC4)c32)cc(C)c1F
Peregrin (Homo sapiens)
  ΔTm: -2.07 °C
[1]
  ΔTm: 1.32 °C

## CNC(=O)c1nnc(NC(=O)C2CC2)cc1Nc1cccc(-c2ncn(C)n2)c1OC
Peregrin (Homo sapiens); tested as the 2H-labelled form
  ΔTm: -1.46 °C
[1]; tested as the 2H-labelled form
  ΔTm: 1.05 °C

## CC(=O)c1c(C)c2cnc(Nc3ccn(C)n3)nc2n(C2CCCC2)c1=O
Peregrin (Homo sapiens)
  ΔTm: -0.34 °C
[1]
  ΔTm: -0.69 °C

## N#Cc1ccc(C#CC[C@@H](C#N)NC(=O)[C@@H]2CCCCN2)cc1F
Peregrin (Homo sapiens)
  ΔTm: -2.06 °C
[1]
  ΔTm: 0.43 °C

## NC(=O)OC[C@H](NC(=O)Cn1nc(-c2ccc(Cl)cc2)n(C[C@H](O)C(F)(F)F)c1=O)c1cccc(C(F)(F)F)c1
Peregrin (Homo sapiens)
  ΔTm: -3.24 °C
[1]
  ΔTm: 1.19 °C

## CC[C@H]1[C@@H](O)[C@@H]2[C@H](CC[C@]3(C)[C@@H]([C@H](C)CCC(=O)O)CC[C@@H]23)[C@@]2(C)CC[C@@H](O)C[C@@H]12
Peregrin (Homo sapiens)
  ΔTm: -1.33 °C
[1]
  ΔTm: 0 °C

## COCCCS(=O)(=O)c1cc(C)c(-c2ccc(F)c3c2CC[C@H]3Oc2ccc3c(c2)OC[C@H]3CC(=O)O)c(C)c1
Peregrin (Homo sapiens)
  ΔTm: -4.61 °C
[1]
  ΔTm: 0.81 °C

## C[C@H](CCC(=O)O)[C@H]1CC[C@H]2[C@@H]3CC[C@@H]4C[C@H](O)CC[C@]4(C)[C@H]3CC[C@]12C
Peregrin (Homo sapiens)
  ΔTm: -3.84 °C
[1]
  ΔTm: -0.33 °C

## O=C(O)CCn1c2c(c3ccccc31)C[C@H](NS(=O)(=O)c1ccc(F)cc1)CC2
Peregrin (Homo sapiens)
  ΔTm: -1.45 °C
[1]
  ΔTm: 0.49 °C

## CN1C(=O)Cc2ccc(-c3ccc(C[C@@H](C#N)NC(=O)[C@H]4N[C@@H]5CC[C@H]4C5)c(F)c3)cc21
Peregrin (Homo sapiens)
  ΔTm: 0.36 °C
[1]
  ΔTm: 0.73 °C
